In patent publication US8378098B2, “Imidazol[1,2-α]quinoxalines and derivatives for the treatment of cancers” (Universite de Montpellier I, priority 2007, dated 2013):
Like-named read-outs stand apart in the source and are kept apart here.

Legend:
A375 melanoma = assay: in vitro cytotoxicity (antiproliferative activity) on A375 melanoma line; format: cell-based, human; settings: for activity compared with EAPB0203: A375, comparing IC50 values of Table 3
Excerpt: Antiproliferative activity was first measured on a cancer cell line of human origin, A375 melanoma.
Imiquimod and fotemustine (Muphoran®) are used as controls in this study.
(§1) Several human carcinoma cell lines were used: • Lines A375, M4Be, RPMI7591 from human melanoma. • Line LS174T from colon carcinoma. • Line A 2780 from ovarian carcinoma. • The Raji line from B lymphoma. • Line MCF7 from breast carcinoma.
IC50 (concentration of the product tested which inhibits 50% of the maximum cell proliferation observed in the control wells) is determined graphically from the curve of the percentage of cell proliferation as a function of concentration of the product tested.

M4Be (melanoma) = assay: in vitro cytotoxicity on M4Be melanoma line; format: cell-based; settings: Homo sapiens, read-out: IC50 M4Be
Excerpt: as §1

RPMI7591 (melanoma) = assay: in vitro cytotoxicity on RPMI7591 melanoma line; format: cell-based; settings: Homo sapiens, read-out: IC50 RPMI7591
Excerpt: as §1

M4Be human melanoma = assay: anti-proliferative activity in vivo, M4Be human melanoma xenografted in athymic mice; settings: 20 mg/kg once per week i.p.; sacrifice at tumour volume 2 cm^3
Protocol: FIG. 1: Effects of fotemustine (20 mg/kg once per week for 3 weeks) and EAPB0203 (20 mg/kg twice per week for 3 weeks) on tumour growth in athymic Swiss mice xenografted with M4Be human melanoma cell line.
Δ, control; ▪, EAPB0203; ●, fotemustine. The data are the results of only one experiment carried out on six mice per group. The results are represented as mean±SEM.
In this study, data are presented relating to the activity of EAPB0203 on the volume of a type of human melanoma tumour model (M4Be lines), xenografted in athymic mice. This study required as a preliminary step several tests of grafts of human melanoma cell lines in athymic mice before establishing the adequate animal model. The in vivo study was performed following the in vitro experiments described previously.
The activity and specificity of EAPB0203 in vivo on tumour growth of human melanoma are evaluated by monitoring tumour development in mice carrying M4Be melanoma treated by administration of fotemustine and EAPB0203 at various doses.
For this study, 18 Swiss nude mice (3 groups of 6 mice) were used. M4Be cancer cells in suspension were injected subcutaneously into the right flank of each athymic Swiss nude female 7-week-old mouse weighing 20-22 g at the beginning of the protocol. The mice were then maintained in a sterile atmosphere and received aseptic food and water. The weight of the mouse and the growth of the tumour in three dimensions were recorded twice a week.
A first group of 6 mice (reference) will receive fotemustine by intra-peritoneal route at a dose of 20 mg/kg once per week for 3 weeks, beginning 7 days after inoculation at the time when the tumour will be visible and palpable. A second group of 6 mice will receive EAPB0203 at the same dose of 20 mg/kg via intra-peritoneal route but twice per week (40 mg/kg per week). The third group (control) of 6 mice will receive only the administration carrier. Tumour volume is calculated by the following formula: length X width X height X 0.52, and is expressed as mean±SEM mm^3.
For fotemustine and EAPB0203, the sequence of administrations is a treatment of three weeks, then two weeks without treatment, and then a second treatment of three weeks.

MCF7 (breast cancer) = assay: in vitro cytotoxicity on MCF7 breast cancer line; format: cell-based; settings: Homo sapiens, Table 2, unit inferred
Excerpt: as §1

LS174T (colon cancer) = assay: in vitro cytotoxicity on LS174T colon cancer line; format: cell-based; settings: Homo sapiens, Table 2, unit inferred
Excerpt: as §1

Raji (B lymphoma) = assay: in vitro cytotoxicity on Raji B lymphoma line; format: cell-based, human; settings: Table 2, unit inferred
Excerpt: as §1

in vivo = settings: rat
Protocol: (§2) Methods of assaying compounds EAPB0203, EAPB0503 and EAPB0603 by high performance liquid chromatography and detection by mass spectrometry (LC/ESI-MS) were developed and validated in human and rat plasmas. Pre-treatment of the samples consists of a liquid solid extraction preceded by precipitation of plasma proteins in acid medium. The chromatographic column used is C8 Zorbax eclipse XDB and the mobile phase (gradient) a mixture of acetonitrile and formate buffer (pH 3) (flow rate, 0.8 ml/min). The […] from 92 to 113%. The extraction coefficients are higher than 72%. The quantification limit is 5 μg/l for all analytes. Stability tests of the compounds in the matrices were also carried out. These methods were used to determine the pharmacokinetic parameters of compounds EAPB0203, EAPB0503 and EAPB0603 in the rat. The lethal doses 50% of compounds EAPB0203 and EAPB0503 are respectively 14.8 and 7.6 mg/kg.

[1] = lethal doses 50% reported in the pharmacokinetic study; format: in vivo; settings: species and route not stated in the sentence (rat study)
Protocol: as §2

[2] = Homo sapiens, A-375, A375 melanoma line, Table 1, IC50 and standard deviation, read-out: IC50
[3] = Homo sapiens, A-375, A375, Table 3, read-out: IC50
[4] = A375, comparison of IC50 values

## CN(C)c1nc2ccccc2n2c(CCc3ccccc3)cnc12 [EAPB0204, N,N-Dimethyl-1-(2-phenylethyl)imidazo[1,2-a]quinoxalin-4-amine]
A375 melanoma; [2]
  IC50: 80.1 ± 7 µM

## CCOP(=O)(OCC)C(C)NC(=O)N(CCCl)N=O (stereo not drawn) [Fotemustine, fotemustine, reference compound]
A375 melanoma; Homo sapiens, A-375, read-out: IC50 A375
  IC50: 173 ± 24 µM
M4Be (melanoma)
  IC50: 326 ± 34 µM
RPMI7591 (melanoma)
  IC50: 125 ± 49 µM
M4Be human melanoma
  day on which the last mice were euthanatized: 76 days

## CNc1nc2ccccc2n2c(-c3ccccc3OC)cnc12 [EAPB0803, 1-(2-methoxyphenyl)-N-methylimidazo[1,2-a]quinoxalin-4-amine]
A375 melanoma; [3]
  IC50: 122 ± 25 µM

## CNc1nc2ccccc2n2c(-c3ccc(OC)cc3)cnc12 [EAPB0703, 1-(4-methoxyphenyl)-N-methylimidazo[1,2-a]quinoxalin-4-amine]
A375 melanoma
  activity compared with EAPB0203: higher than that of EAPB0203
A375 melanoma; [3]
  IC50: 0.37 ± 0.4 µM

## CNc1nc2ccccc2n2c(-c3cccc(F)c3)cnc12 [EAPB01403, 1-(3-fluorophenyl)-N-methylimidazo[1,2-a]quinoxalin-4-amine]
A375 melanoma; [3]
  IC50: 24.9 ± 0.27 µM

## CC(C)Cn1cnc2c(N)nc3ccccc3c21 [Imiquimod, imiquimod]
A375 melanoma; Homo sapiens, A-375, Table 2, unit inferred, read-out: IC50 A375
  IC50: 70.3 ± 4.3 µM
M4Be (melanoma); Table 2, unit inferred
  IC50: 33.5 ± 7.7 µM
RPMI7591 (melanoma); Table 2, unit inferred
  IC50: 53.7 ± 9.8 µM
MCF7 (breast cancer)
  IC50: 145 ± 7 µM
LS174T (colon cancer)
  IC50: 34.4 ± 9.7 µM
Raji (B lymphoma); Homo sapiens, Raji
  IC50: 139 ± 12 µM

## COc1nc2ccccc2n2c(CCc3ccccc3)cnc12 [EAPB0206, 4-Methoxy-1-(2-phenylethyl)imidazo[1,2-a]quinoxaline]
A375 melanoma; [2]
  IC50: 47.8 ± 5 µM

## CNc1nc2ccccc2n2c(-c3cccc(C#N)c3)cnc12 [EAPB01503, 1-(3-cyanophenyl)-N-methylimidazo[1,2-a]quinoxalin-4-amine]
A375 melanoma; [3]
  IC50: 27 ± 2.2 µM

## CNc1nc2ccccc2n2c(-c3cccc(OC)c3)cnc12 [EAPB0503, 1-(3-methoxyphenyl)-N-methylimidazo[1,2-a]quinoxalin-4-amine]
A375 melanoma
  activity compared with EAPB0203: higher than that of EAPB0203
A375 melanoma; [3]
  IC50: 0.18 ± 0.09 µM
In vivo; iv, 5 mg/kg
  Vd: 5.6 L/kg
  area under the curve of plasma concentrations: 2.31 µg·h/mL
  clearance: 2.2 L/h/kg
  half-life: 1.76 h
[1]
  lethal doses 50%: 7.6 mg/kg

## CCOc1cccc(-c2cnc3c(NC)nc4ccccc4n23)c1 [EAPB0903, 1-(3-ethoxyphenyl)-N-methylimidazo[1,2-a]quinoxalin-4-amine]
A375 melanoma
  activity compared with EAPB0203: higher than that of EAPB0203
A375 melanoma; [3]
  IC50: 0.3 ± 0.01 µM

## COc1cccc2c1C(=O)c1c(O)c3c(c(O)c1C2=O)C[C@@](O)(C(=O)CO)C[C@@H]3O[C@H]1C[C@H](N)[C@H](O)[C@H](C)O1 [Doxorubicine, doxorubicin]
MCF7 (breast cancer)
  IC50: 0.13 ± 0.01 µM

## CNc1nc2ccccc2n2c(-c3cccc(Cl)c3)cnc12 [EAPB01203, 1-(3-chlorophenyl)-N-methylimidazo[1,2-a]quinoxalin-4-amine]
A375 melanoma; [3]
  IC50: 1.78 ± 0.35 µM

## CNc1nc2ccccc2n2c(-c3ccccc3)cnc12 [EAPB0403, N-methyl-1-phenylimidazo[1,2-a]quinoxalin-4-amine]
A375 melanoma; [3]
  IC50: 2.19 ± 0.08 µM

## CC(C)Cc1cnc2c(N(C)C)nc3ccccc3n12 [EAPB0104, 1-Isobutyl-N,N-dimethylimidazo[1,2-a]quinoxalin-4-amine]
A375 melanoma; [2]
  IC50: 66.3 ± 7.5 µM

## CN(Cc1cnc2nc(N)nc(N)c2n1)c1ccc(C(=O)N[C@@H](CCC(=O)O)C(=O)O)cc1 [Methothrexate, methothrexate]
Raji (B lymphoma)
  IC50: 0.04 ± 0.005 µM

## CNc1nc2ccccc2n2c(-c3cccc(O)c3)cnc12 [EAPB0603, 1-(3-hydroxyphenyl)-N-methylimidazo[1,2-a]quinoxalin-4-amine]
A375 melanoma
  activity compared with EAPB0203: higher than that of EAPB0203
A375 melanoma; [3]
  IC50: 0.56 ± 0.12 µM
In vivo
  metabolic relation: active metabolite of EAPB0503
In vivo; iv, 5 mg/kg
  elimination half-life (metabolite): 4.7 h

## CCc1c2c(nc3ccc(OC(=O)N4CCC(N5CCCCC5)CC4)cc13)-c1cc3c(c(=O)n1C2)COC(=O)[C@]3(O)CC [Irinotecan, irinotecan]
LS174T (colon cancer)
  IC50: 1.16 ± 0.07 µM

## CNc1nc2ccccc2n2cc(-c3cccc(OC)c3)nc12 [N-methyl-2-(3-methoxyphenyl)imidazo[1,2-a]quinoxalin-4-amine]
A375 melanoma; A375
  activity times higher than EAPB0203: 100 times
  activity times higher than that of EAPB0503: 10 times
A375 melanoma; Homo sapiens, A-375, melanoma (A375), text b219, read-out: IC50
  IC50: 0.018 µM

## Clc1nc2ccccc2n2c(CCc3ccccc3)cnc12 [EAPB0201, 4-Chloro-1-(2-phenylethyl)imidazo[1,2-a]quinoxaline]
A375 melanoma; [2]
  IC50: 24 ± 0.5 µM

## CNc1nc2ccccc2n2c(CC(C)C)cnc12 [EAPB0103, 1-Isobutyl-N-methylimidazo[1,2-a]quinoxalin-4-amine]
A375 melanoma; [2]
  IC50: 31.6 ± 2 µM

## 1-furan-N-methylimidazo[1,2-a]quinoxalin-4-amine [EAPB01703]
A375 melanoma; A375, Table 3, read-out: IC50
  IC50: 74.1 ± 3.1 µM

## CNc1nc2ccccc2n2c(-c3cccc(Br)c3)cnc12 [EAPB01003, 1-(3-bromophenyl)-N-methylimidazo[1,2-a]quinoxalin-4-amine]
A375 melanoma
  activity compared with EAPB0203: higher than that of EAPB0203
A375 melanoma; [3]
  IC50: 0.65 ± 0.02 µM

## CNc1nc2ccccc2n2c(-c3cccc(C(=O)O)c3)cnc12 [EAPB01303, 1-(3-carboxyphenyl)-N-methylimidazo[1,2-a]quinoxalin-4-amine]
A375 melanoma; [3]
  IC50: 3.47 ± 0.55 µM

## CNc1nc2ccccc2n2c(-c3cccc([N+](=O)[O-])c3)cnc12 [EAPB01603, 1-(3-nitrophenyl)-N-methylimidazo[1,2-a]quinoxalin-4-amine]
A375 melanoma; [3]
  IC50: 40 ± 3.9 µM

## Nc1nc2ccccc2n2c(CCc3ccccc3)cnc12 [EAPB0202, 1-(2-phenylethyl)imidazo[1,2-a]quinoxalin-4-amine]
A375 melanoma; [4]
  activity times higher than that of fotemustine: 70 times
  activity times higher than that of imiquimod: 30 times
  times more active than EAPB0204: ~2 times
A375 melanoma; [2]
  IC50: 2.35 µM

## CNc1nc2ccccc2n2c(-c3cccc(C(F)(F)F)c3)cnc12 [EAPB01103]
A375 melanoma; A375, Table 3, read-out: IC50
  IC50: 1.28 ± 0.18 µM
